From ChEMBL document CHEMBL6182933, “Design and Synthesis of PARP/CDK6 Dual-Target Inhibitors Modulating of Wnt/β-Catenin Signaling Pathway for the Treatment of BRCA Wild-Type TNBC” (J Med Chem, 2025)

Key:
[1] = test system: MDA-MB-231; test: Antiproliferative activity against human MDA-MB-231 cells assessed as cell viability incubated for 48 hrs by MTT assay; type: functional, cell-based; settings: MDA-MB-231, 48 h
[2] = biological target: Poly [ADP-ribose] polymerase 1 (Homo sapiens, UniProt P09874); test: Inhibition of GST-tagged PARP1(unknown origin) in presence of activated DNA incubated for 60 mins by microplate reader analysis
Sequence of Poly [ADP-ribose] polymerase 1 (P09874 whole entry): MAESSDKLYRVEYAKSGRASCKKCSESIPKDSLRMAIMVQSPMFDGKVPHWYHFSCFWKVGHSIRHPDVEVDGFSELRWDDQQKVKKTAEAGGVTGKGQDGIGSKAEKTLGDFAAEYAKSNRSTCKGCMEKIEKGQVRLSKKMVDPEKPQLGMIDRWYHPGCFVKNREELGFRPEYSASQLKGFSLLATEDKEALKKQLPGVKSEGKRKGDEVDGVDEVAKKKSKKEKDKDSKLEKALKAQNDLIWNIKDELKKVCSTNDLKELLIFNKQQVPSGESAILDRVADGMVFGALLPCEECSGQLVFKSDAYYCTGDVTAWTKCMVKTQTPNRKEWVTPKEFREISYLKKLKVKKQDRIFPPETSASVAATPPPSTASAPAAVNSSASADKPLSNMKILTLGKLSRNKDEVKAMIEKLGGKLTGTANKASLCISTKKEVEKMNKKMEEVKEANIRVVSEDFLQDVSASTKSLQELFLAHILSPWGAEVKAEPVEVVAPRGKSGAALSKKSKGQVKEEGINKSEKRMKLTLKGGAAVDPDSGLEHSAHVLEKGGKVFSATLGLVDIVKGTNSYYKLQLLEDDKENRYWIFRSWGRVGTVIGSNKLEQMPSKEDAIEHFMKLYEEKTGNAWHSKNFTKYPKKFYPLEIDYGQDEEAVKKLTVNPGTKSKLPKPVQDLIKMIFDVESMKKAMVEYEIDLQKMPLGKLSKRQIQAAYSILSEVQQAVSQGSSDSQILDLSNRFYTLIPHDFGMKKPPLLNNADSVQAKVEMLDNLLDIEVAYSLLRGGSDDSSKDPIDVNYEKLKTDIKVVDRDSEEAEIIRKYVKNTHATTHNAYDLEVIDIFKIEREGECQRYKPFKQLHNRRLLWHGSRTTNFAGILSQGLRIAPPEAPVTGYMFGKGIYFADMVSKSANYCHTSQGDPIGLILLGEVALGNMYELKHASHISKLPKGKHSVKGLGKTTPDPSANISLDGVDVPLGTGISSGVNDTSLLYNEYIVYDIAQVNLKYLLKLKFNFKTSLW

[3] = test system: MDA-MB-468; test: Antiproliferative activity against human MDA-MB-468 cells assessed as cell viability incubated for 48 hrs by MTT assay; type: functional, cell-based; settings: MDA-MB-468, 48 h
[4] = test system: HCC1937; test: Antiproliferative activity against human HCC1937 cells harboring BRCA1 mutant assessed as cell viability incubated for 48 hrs by MTT assay; type: functional, cell-based; settings: HCC1937, 48 h
[5] = Cytotoxicity against human MCF-10A cells assessed as cell viability incubated for 48 hrs by MTT assay; type: toxicity, cell-based
[6] = test system: HCT-116; test: Antiproliferative activity against human HCT-116 cells harboring BRCA2 mutant assessed as cell viability incubated for 48 hrs by MTT assay; type: functional, cell-based; settings: HCT-116, 48 h
[7] = biological target: Cyclin-dependent kinase 6 (Homo sapiens, UniProt Q00534); test: Inhibition of full length N-terminal human recombinant CDK6 expressed in baculovirus sf9 cells in presence of ATP by ADP-glo kinase assay
Sequence of Cyclin-dependent kinase 6 (Q00534 whole entry): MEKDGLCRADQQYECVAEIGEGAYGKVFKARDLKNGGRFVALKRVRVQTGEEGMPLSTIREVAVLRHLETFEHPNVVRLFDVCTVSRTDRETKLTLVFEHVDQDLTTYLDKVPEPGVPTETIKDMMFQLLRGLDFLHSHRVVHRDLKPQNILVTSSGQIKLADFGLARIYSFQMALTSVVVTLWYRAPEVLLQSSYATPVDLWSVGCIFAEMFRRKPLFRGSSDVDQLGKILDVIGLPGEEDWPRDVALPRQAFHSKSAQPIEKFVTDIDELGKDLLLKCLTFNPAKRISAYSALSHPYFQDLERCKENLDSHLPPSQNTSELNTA

[8] = Selectivity index, ratio of IC50 for antiproliferative activity against human HCC1937 cells harboring BRCA1 mutant assessed as cell viability to IC50 for antiproliferative activity against human MDA-MB-231 cells assessed as cell viability; type: functional

IC50 [1]: 1590 nM
IC50 [2]: 113 nM
IC50 [3]: 4.39 µM
IC50 [4]: 8.72 µM
IC50 [6]: 2020 nM
IC50 [7]: 45.6 nM
Structure (SMILES): CN(C)C(=O)c1cc2cnc(Nc3ccc(C(=O)N4CCC(c5nc6c(C(N)=O)cccc6[nH]5)C4)cc3Cl)nc2n1C1CCCC1 (stereo not drawn)
IC50 at 48 h [5]: 930 nM
Ratio IC50 [8]: 5.48
